Measured values as given in PubChem BioAssay (NCI).
Values joined by “and” are separate entries in the source; they are usually repeats but may differ in a detail not shown here. Identical values can stand only once.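 Cells were grown in 96-well plates and exposed to each compound for 48 hours at five concentrations; endpoints were interpolated linearly between bracketing concentrations, or set to the highest concentration if not reached. The concentration for 50% growth inhibition is given as GI50. Definition used: TGI = concentration required for complete inhibition of growth.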

Assays:
Assay in all cases: growth of human tumour cells (NCI), 48 h
CAKI-1 renal = system: CAKI-1 renal
MDA-MB-231 breast = system: MDA-MB-231 breast
HL-60(TB) leukemia = system: HL-60(TB) leukemia
NCI/ADR-RES ovarian = system: NCI/ADR-RES ovarian
OVCAR-3 ovarian = system: OVCAR-3 ovarian
SNB-75 CNS = system: SNB-75 CNS
SK-MEL-2 melanoma = system: SK-MEL-2 melanoma
NCI-H460 lung = system: NCI-H460 lung
HT29 colon = system: HT29 colon
HCC-2998 colon = system: HCC-2998 colon

SMILES | GI50 (CAKI-1 renal) [µM] | TGI (CAKI-1 renal) [µM] | GI50 (MDA-MB-231 breast) [µM] | TGI (MDA-MB-231 breast) [µM] | GI50 (HL-60(TB) leukemia) [µM] | TGI (HL-60(TB) leukemia) | GI50 (NCI/ADR-RES ovarian) [µM] | TGI (NCI/ADR-RES ovarian) [µM] | GI50 (OVCAR-3 ovarian) [µM] | TGI (OVCAR-3 ovarian) | GI50 (SNB-75 CNS) [µM] | TGI (SNB-75 CNS) | GI50 (SK-MEL-2 melanoma) [µM] | TGI (SK-MEL-2 melanoma) | GI50 (NCI-H460 lung) [µM] | TGI (NCI-H460 lung) | TGI (HT29 colon) | TGI (HCC-2998 colon) | GI50 (HT29 colon) [µM] | GI50 (HCC-2998 colon)
CC1=C(C(=O)Nc2ccc(F)c(Cl)c2)C(c2cccc(O)c2)NC(=S)N1 (configuration not stated) | > 50 | > 50 | 10.9 | 30.2 | 25.8 | > 50 µM | > 50 | > 50 | 17.9 | > 50 µM | 14.4 | 41.3 µM | 20.3 | > 50 µM | 22.8 | > 50 µM |  |  |  | 
COC1CCC2C(=O)CCCC2O1 (configuration not stated) |  | > 100 |  |  |  | > 100 µM |  |  |  | > 100 µM |  | > 100 µM |  | > 100 µM |  | > 100 µM | > 100 µM | > 100 µM |  | 
CCOC(=O)c1[nH]c2cccc3c2c1CC(Br)C3=O (configuration not stated) |  | 23.6 |  | 33.6 |  | 10.7 µM |  | 30.3 |  | 26.2 µM |  |  |  |  |  | 47.8 µM | 47.7 µM | 29.8 µM |  | 
CC1(c2ccccc2)CC12C(=O)NC(=O)NC2=O (configuration not stated) |  | > 100 |  |  |  | > 100 µM |  |  |  | > 100 µM |  |  |  | > 100 µM |  |  | > 100 µM | > 100 µM |  | 
CC(C)(C)C(=O)Nc1ccccc1Br |  | > 100 |  |  |  | > 100 µM |  |  |  | > 100 µM |  | > 100 µM |  | > 100 µM |  | > 100 µM | > 100 µM | > 100 µM |  | 
Cc1ccc(C2=[N+]([O-])c3ccccc3C2=O)cc1 |  | > 100 |  |  |  | 33.6 µM |  |  |  | 32.2 µM |  | > 100 µM |  | 97.7 µM |  | > 100 µM | > 65 µM | > 100 µM |  | 
Cc1cc(S(=O)(=O)Nc2nnc(-c3ccco3)c(-c3ccco3)n2)c(SCc2ccccc2)cc1Cl | 28.5 | 55.8 | 24.8 | 47.6 | 24.8 | 83.1 µM | 39.4 | > 100 | 26.2 | 50.9 µM | 32.1 | 56.2 µM |  |  | 31.6 | 83.5 µM | 47.1 µM | 36.8 µM | 23.1 | 20.4 µM
CN(C)CCCNC(=O)c1cc(NC(=O)c2cc(NC(=O)CCCN3c4ccccc4C=Cc4ccccc43)cn2C)cn1C | 18.5 | 43.9 | 4.04 | 96 | 14.3 | 41.4 µM | 23.6 | 59.9 | 13.4 | 54.2 µM | 13.6 | 62.9 µM |  |  | 5.19 | > 100 µM | > 100 µM | 4.03 µM | 3.59 | 2.17 µM
Brc1nc2c3ccccc3ncn2c1Br |  | 79.5 |  |  |  | > 100 µM |  |  |  | 22.5 µM |  | 44.2 µM |  | 82.6 µM |  | > 100 µM | > 100 µM | > 100 µM |  | 
Nc1ccc(CCN2CCN(c3cccc(C(F)(F)F)c3)CC2)cc1 |  | > 100 |  |  |  | 41.8 µM |  |  |  | > 100 µM |  | > 100 µM |  |  |  | > 100 µM | > 100 µM | > 100 µM |  | 
CCC12CCC(O)C1N(C)CCC2Sc1ccccc1 (configuration not stated) |  |  |  |  |  | 56.5 µM |  |  |  | > 100 µM |  | 87.9 µM |  | > 100 µM |  | > 100 µM | > 100 µM | 94.8 µM |  | 
COCC1N=C(c2ccc(OC)c(OCc3ccccc3)c2OC)O[C@H]1c1ccccc1 (some centres not stated) |  |  |  |  |  | 40.4 µM |  |  |  | 55 µM |  | > 100 µM |  | 53.3 µM |  | 35 µM | 59.7 µM | > 100 µM |  | 
O=NN(CCCl)C(=O)NCc1ccc[n+]([O-])c1 |  | > 100 |  |  |  | > 100 µM |  |  |  | > 100 µM |  |  |  | > 100 µM |  | > 100 µM | > 100 µM | > 100 µM |  | 
CC1=C2C(=CC(C)(CO)C2O)C(=O)C(C)(O)C12CC2 (configuration not stated) |  | 0.0183 |  |  |  | 0.00697 µM |  |  |  | 0.019 µM | 0.00576 | 0.0165 µM |  | 0.00422 µM |  | 0.0046 µM | 0.0446 µM | 0.00903 µM |  | 
COC(=O)[C@H](C)[C@H]1CC[C@@](C)([C@H]2CC3C(C)(C)[C@H]4CCC(C)=C[C@H]4C[C@@]3(C)O2)OO1 (some centres not stated) |  | 18.2 |  |  |  | 5.57 µM |  |  |  | 27.7 µM |  | 18.1 µM |  | 31.4 µM |  | 4.62 µM | 27.2 µM | 18.7 µM |  | 
CC(C)SC1SCC2C(=O)N(C)C3(CC3C)C(=O)OCC(NC(=O)c3nc4ccccc4cc3O)C(=O)NC(C)C(=O)N(C)C1C(=O)N(C)C1(CC1C)C(=O)OCC(NC(=O)c1nc3ccccc3cc1O)C(=O)NC(C)C(=O)N2C (configuration not stated) |  | 0.00028 |  | > 100 |  | < 0.0001 µM | 0.0334 |  |  | < 0.0001 µM |  |  |  |  |  |  | 2.88 µM | < 0.0001 µM |  | 
O=C(Oc1cccc(Nc2ncnc3ccccc23)c1)c1ccccc1Cl | 9.6 | 35.8 | 14.3 | 36 | 79.4 | > 100 µM | 14.5 | 40.7 | 16.7 | 56.9 µM |  |  |  |  | 20.3 | 52.7 µM | > 100 µM | 39.3 µM | 27.4 | 20.4 µM
NC(=O)c1csc(C2O[C@@H](COP(=O)(O)OP(=O)(O)OC[C@H]3OC(n4cnc5c(N)ncnc54)[C@H](O)[C@@H]3O)[C@H](O)[C@@H]2O)n1 (some centres not stated) |  | > 100 |  |  |  | > 100 µM |  |  |  | > 100 µM |  | > 100 µM |  | > 100 µM |  | > 100 µM | > 100 µM | > 100 µM |  | 
O=C(Nc1ccccc1)O/N=C1/CCCC/C1=C\c1ccccc1 |  | 29.2 |  |  |  |  |  |  |  | 28.5 µM |  | 28.6 µM |  | 29.2 µM |  | 28.3 µM | 95.1 µM | 41.7 µM |  | 
O=C(Nc1cccc(C2=NCCN2)c1)c1ccc(OCCCOc2ccc(C(=O)Nc3cccc(C4=NCCN4)c3)cc2)cc1 | 4.67 | 84.6 |  |  | 2.3 | > 100 µM | 46.2 | > 100 |  |  |  |  |  |  |  |  |  |  |  | 
COc1cccc(/C=C\c2cc(OC)c(OC)c(OC)c2)c1 |  | 56.4 |  |  |  |  |  |  |  | 79.1 µM |  | 20.4 µM |  |  |  | > 100 µM | 67.9 µM | 69.5 µM |  | 
Cc1c2cc[n+](C)cc2c(C)c2c1[nH]c1ccc(OC(C)C)cc12 |  | > 35.1 |  |  |  | 11.2 µM and 39.9 µM |  |  |  | 14.6 µM and 26.7 µM |  | 0.82 µM and 1.99 µM |  | 3.94 µM and 8.68 µM |  | 11.8 µM and 13.6 µM | 18.5 µM and 24.4 µM | 9.95 µM and 20 µM |  | 2.87 µM and 6.45 µM
